Here are results for 4 substances from patent US20110217355A1, “CONTACT LENS BASED BIOACTIVE AGENT DELIVERY SYSTEM” (priority 2007, published 2011).

Read-outs that look alike come from different tables or passages of the source.

Data set [1] in a line: Physical properties of the surfactants obtained from literature. To be noted: carbons in hydrophobic tail / total carbons. The format is physicochemical. On the procedure:
Table 3 lists the surfactants utilized in this study and their relevant physical properties obtained from literature. The value of ‘fh’ is also listed, this is defined as the fraction of hydrophobic chain length of the surfactant and is calculated by taking the ratio of number of carbons in the hydrophobic tail of the surfactant to the total number of carbons present in the surfactant.

Data set [2] can be described thus: Surfactant release experiments from hydrogels in DI water (surface tension). It counts as physicochemical. As to conditions: for Slope (surfactant release vs rescaled time): p-HEMA gels, slope = √(2DSC*×100); for DSC*: surfactant diffusivity times critical aggregation concentration in p-HEMA gel, from fitting surfactant release data. The method, then: The rates of surfactant release were measured in 3.5 ml of DI water with water replacement after each measurement to maintain perfect sink conditions. The surfactant concentration in the release medium was determined by measuring surface tension (σ), which was then related to the concentration through a σ(C) calibration curve. The surface tension was measured by using a Wilhelmy plate (sand blasted platinum plate) attached to a Scaime France Microbalance which was further connected to a Stathan Universal transducer (SC001).
The rate of surfactant release from surfactant-laden contact lenses needs to be measured because an excessive release could lead to toxicity. Additionally, the rate of surfactant release impacts drug release. As described in the previous section, the surfactant concentration in the release medium was determined by measuring the surface tension of the solution, which is related to the bulk concentration (Data not shown).
where DS is the surfactant diffusivity, C* is the critical aggregation concentration (CAC), i.e., the concentration beyond which the surfactant aggregates inside the gel, t is time, Cp is the concentration of the surfactant present as aggregates inside the hydrogel, and h is the half-thickness of the hydrogel. The above equation is valid for diffusion of any solute that is loaded in the gel above saturation limit and so a fraction of the solute precipitates into aggregates. This equation is the equivalent of the Higuchi equation that is commonly utilized to model drug release from gels [Higuchi T. Rate of release of medicaments from ointment bases containing drugs in suspension. Journal of Pharmaceutical Sciences 1961; 50(10):874-875].
To validate the model and to understand the mechanism of surfactant transport, surfactant release studies were conducted from gels of different surfactant loadings (approximately 2%, 4% and 8% w/w in drug gel) and different gel thicknesses (˜100 and 200 μm in dry state). FIG. 8a-c show the surfactant release from 100 μm thick and 200 μm thick gels with three different surfactant concentration explored for 200 μm thick gels. The data is re-plotted in FIG. 9a-c with time axis rescaled to
The fact that association of Brij 700 with the gel matrix is strongly dependant on the gel thickness may be due to large number of ethylene oxide (EO) units in the surfactant.
The slope indicated in FIG. 9(a-c) represents the value of √{square root over (2DSC*×100)}.
As mentioned above, the critical aggregation concentration for Brij 700 in p-HEMA gels is more than 1%, and so the release data from gels loaded with 1% (w/w) can be fitted to the following equation to obtain the surfactant diffusivity [Ritger P L, Peppas N A. A simple equation for description of solute release 1. Fickian and non-Fickian release from mom-swellable devices in the form of slabs, spheres, cylinders and discs. Journal of Controlled Release 1987; 5:23-36].
Here DS is the diffusivity of the surfactant and h is the half-thickness of the gel. The diffusivity of Brij 700 from these hydrogels was determined to be 7.85×10^−17 m^2/s and subsequently the value of C* was evaluated from the already determined parameter ‘DsC*’ (Table 4) to be 2.4±1.1 mM, which is equivalent to 1.12±0.51% surfactant in a dry gel. This value is in reasonable agreement with the hypothesis C* for Brij 700 is approximately 2%, which was based on the overlapping percentage release data for 1% and 2% Brij 700 loaded gels.

The conditions of data set [3]: calculated earlier (Kapoor and Chauhan 2008), reported for comparison; cited from earlier work.
A further data set has as its system cornea. To be noted: exposure to 0.05% solution for about 5 hours; cited from earlier work.

On to POE (10) oleyl ether [Brij 97], for which the “fh (fraction of hydrophobic chain length of the surfactant)” value in data set [1] was found to be 0.47. Besides, in data set [2], the “Slope (surfactant release vs rescaled time)” value is on record as 0.4802 ± 0.010 and the “DSC*” value is listed as 11.52 (μm)^2M/s × 10^6.
With POE (20) oleyl ether [Brij 98], the “fh (fraction of hydrophobic chain length of the surfactant)” value in data set [1] was 0.31. In addition, in data set [3], the “DSC*” value is 60.80 (μm)^2M/s × 10^6 and the “Slope (surfactant release vs rescaled time)” value was 1.1000 ± 0.013.
Take POE (20) stearyl ether [Brij 78]: the corneal hydration entry with cornea is given as “does not lead to any significant increase in corneal hydration”. For the same substance, in data set [1], the “fh (fraction of hydrophobic chain length of the surfactant)” value was 0.31. Also, the “average release of surfactant” value in data set [2] (100 micron thick gel with 8% loading) is given as “about 30 μg/day”. Also, in data set [2] (100 micron thick gel with 8% loading, 10 days), the “amount of surfactant released” value is “around 300 μg”. In addition, the “surfactant released from gel” value in data set [2] (100 micron thick gel with 8% loading, period of 10 days) is recorded as “about 10%”. Besides, the “surfactant released into the post lens tear film” value in data set [2] (at the most half of the average release, lens on an eye) was ≤ 15 µg/day. Besides, in data set [2], the “Slope (surfactant release vs rescaled time)” value amounted to 0.1846 ± 0.050 and the “DSC*” value is reported as 1.70 (μm)^2M/s × 10^6.
With POE (100) stearyl ether [Brij 700], the “fh (fraction of hydrophobic chain length of the surfactant)” value in data set [1] was found to be 0.08. Further, the “C* as surfactant in a dry gel” value in data set [2] (equivalent of the mM value) came to 1.12±0.51%. Besides, the “C* (critical aggregation concentration)” value in data set [2] (in p-HEMA gel, evaluated from DsC* and DS) was 2.4 ± 1.1 mM. Further, the “diffusivity of the surfactant from hydrogels (DS)” value in data set [2] (p-HEMA gels loaded with 1% (w/w) surfactant) was 7.85×10^−17 m^2/s. Besides, in data set [2], the “Slope (surfactant release vs rescaled time)” value was 0.0613 ± 0.013 and the “DSC*” value is reported as 0.19 (μm)^2M/s × 10^6.
